Laboratory results as given in patent US11185593B2, “Alkylating agent for alkylating target with driver oncogene mutation” (Chiba Prefecture, priority 2013, dated 2021).

Experiments:
LS180 (KRAS-MUThetero) = assay: Suppression of tumor growth in nude mice, LS180 transplanted; type: in vivo; conditions: nude mice with LS180 cells; 3.4 mmol KR12 via the caudal vein; FIG. 14B
Protocol: The below-mentioned 3 types of PBS solutions containing each type of cells were subcutaneously transplanted into the femurs of nude mice (i.e., HT29 into 7 mice, LS180 into 7 mice, and SW480 into 6 mice), and thereafter, at a time point in which a tumor adhered to the living body of each mouse and the tumor volume became approximately 100 mm^3, a drug was prepared with a composition of 3.4 mmol KR12 (1.36 mM KR12 dissolved in 2.5 μL of DMSO and 197.5 μL of PBS), or of a DMSO/PBS control (2.5 μL of DMSO and 197.5 μL of PBS). The prepared drug was subjected to sonication for 10 minutes, and 200 μL of the drug was administered to each mouse via the caudal vein thereof. The body weight and the tumor size were measured once three days, and the size of the tumor was measured by the method of 0.52×L×W×D(1/6×π×L×W×D).
LS180 (KRAS-MUThetero): (transplanted in an amount of 3×10^6 cells/100 μl PBS into the subcutis of each mouse; a cell line having a heterozygous KRAS gene codon 12 mutation G12D)

LS180 cells = assay: Analysis of change in cell cycle (propidium iodide, flow cytometry); type: cell-based, human; conditions: LS180, 50 nM, FIG. 10A; for change in cell cycle: 72 hours; for change in cell cycle, Sub G1 stage (cell death): long-term treatment (14 days)
Protocol: In order to observe a cell cycle, treated cells and untreated cells were each washed with DNase-free PBS twice, and were then immobilized with 70% ethanol (frozen). The immobilized cells were treated with PBS containing 10 µg/mL RNaseA and 50 µg/mL propidium iodide, while they were left in a dark place at room temperature for 30 minutes. Using an FL-2H filter of FACS Calibur flowcytometer (Becton Dickinson, USA), fluorescence intensity was measured. The rate of cell cycle was determined by analyzing the obtained data using Cell Quest software (Becton Dickinson, USA). Regarding the treatment of cells, LS180 was treated with 50 nM KR12 or KR13 (dissolved in 0.125% DMSO) for 72 hours, and as a long-term treatment experiment, a culture experiment was carried out for 14 days. As a control, the cells were cultured in an MEM medium containing 10% FBS and 0.125% DMSO for 14 days.

[1] = test system: mutant KRAS genes and wild-type KRAS genes in PANC-1; assay: Colony analysis of KRAS transcripts, PANC-1; type: cell-based; conditions: for MUT (number of mutant gene colonies) / WT (number of wild-type gene colonies): PANC-1, Table 4
[2] = test system: γH2AX, p53, PARP in LS180 cells; assay: Western analysis of markers of DNA damage and cell death (apoptosis); type: cell-based, human; conditions: LS180, 50 nM, 14 days, FIG. 10C
Protocol: LS180 cells, which had been subjected to a long-term treatment experiment and had been treated with 50 nM KR12 or KR13 (dissolved in 0.125% DMSO) for 14 days, were dissolved in a 1×SDS-sample buffer. The obtained solution was treated at 100° C. for 5 minutes. The protein amount was estimated using Bradford reagent (Bio-Rad, CA), and was then electrophoresed by 10% SDS-PAGE. After that, the protein was transferred onto polyvinylidene difluoride membranes (Millipore, MA), and using 5% dry milk in Tris-buffered saline (TBS) plus 0.1% Tween 20 as a blocking agent, anti-γH2AX (2F3, BioLegend, CA), anti-p53 (DO-1, Santa Cruz Biotechnology, CA), anti-PARP (Cell Signaling Technologies, MA), or anti-actin antibody (20-33, Sigma, MO) was added to lanes, and the protein was further treated with HRP-conjugated anti-mouse IgG or anti-rabbit IgG (Cell Signaling Technologies, MA). Before the treatment with a secondary antibody, the primary antibody was washed, as appropriate. Thereafter, the protein was washed with TBS plus 0.1% Tween 20, and it was then identified by […] chemiluminescence (ECL) (Amersham Biosciences, NJ).

[3] = test system: mutant codon 12 KRAS gene and wild-type KRAS gene in LS180; assay: Colony PCR with allele specific primers, LS180; type: cell-based, human; conditions: for MUT (number of mutant gene colonies) / WT (number of wild-type gene colonies): LS180, 50 nM, 48 hours, colony PCR, Table 3
Protocol: Using primers that specifically amplify the GAT mutant gene of KRAS codon 12 (KRAS-MUT-F and KRAS-MUT-R) and the wild-type genes thereof (KRAS-WT-F and KRAS-WT-R), PCR was carried out directly on the Escherichia coli cells in the above-described white colonies. Whether each colony was a mutant KRAS gene or a wild-type KRAS gene was determined, depending on by which primer set the band of interest was amplified.
KR12, which was considered to specifically alkylate the KRAS mutant codon 12 gene, was administered to a heterozygous colon cancer cell line LS180 having both a mutant codon 12 KRAS gene and a wild-type KRAS gene. Forty-eight hours later, RNA was extracted, and the KRAS gene was then quantitatively amplified. The amplified gene was cloned into a plasmid, using a TA cloning kit, and the obtained plasmid was then introduced into competent cells. Thereafter, by performing blue-white selection using an LB/amp/IPTG/X-Gal plate, white colonies having inserts were picked up, and then, the presence or absence of a colon 12 mutation in each colony was examined by direct sequencing or by a colony PCR method.

LS180 = assay: Cell growth of KR12-treated LS180 cells (FIG. 12B); type: cell-based, human; conditions: LS180, FIG. 12B

Structure (SMILES)	tumor growth (LS180 (KRAS-MUThetero))	change in cell cycle (LS180 cells)	change in cell cycle, Sub G1 stage (cell death) (LS180 cells)	MUT (number of mutant gene colonies) [1]	WT (number of wild-type gene colonies) [1]	expression levels of the mutant KRAS genes relative to wild-type KRAS genes ([1]; PANC-1, control group mutant 3-fold higher than wild-type)	DNA damage marker γH2AX [2]	cleavage of the PARP protein [2]	induction of p53 [2]	MUT (number of mutant gene colonies) [3]	WT (number of wild-type gene colonies) [3]	expression levels of mutant cancer genes ([3]; LS180, colony PCR)	cell growth (LS180)	induction of DNA damage and cell death [2]
CC(=O)Nc1cn(C)c(C(=O)Nc2cc(C(=O)NCCC(=O)Nc3cn(C)c(C(=O)Nc4cn(C)c(C(=O)Nc5cc(C(=O)Nc6cn(C)c(C(=O)NCCCC(=O)Nc7cc(C(=O)Nc8cn(C)c(C(=O)NCCC(=O)Nc9cc(C(=O)Nc%10cc(C(=O)Nc%11ccc%12[nH]c(C(=O)N%13CC(CCl)c%14c%13cc(O)c%13ccccc%14%13)cc%12c%11)n(C)c%10)n(C)c9)n8)n(C)c7)n6)n(C)c5)n4)n3)n(C)c2)n1 (centres unmarked) [KR12]	significantly suppressed	the LS180 cells at the S stage were increased	the cells at the Sub G1 stage were significantly increased	24	21	decreased to the same levels of the wild-type KRAS genes	induced	the cleavage of the PARP protein was observed	induction of p53 was also observed	11	27	the expression levels of mutant cancer genes were decreased	suppressed	
CC(=O)Nc1cn(C)c(C(=O)Nc2cn(C)c(C(=O)Nc3cc(C(=O)Nc4cn(C)c(C(=O)NCCC(=O)Nc5cc(C(=O)Nc6cn(C)c(C(=O)NCCCC(=O)Nc7cc(C(=O)Nc8cn(C)c(C(=O)Nc9cc(C(=O)NCCC(=O)Nc%10cc(C(=O)Nc%11ccc%12[nH]c(C(=O)N%13CC(CCl)c%14c%13cc(O)c%13ccccc%14%13)cc%12c%11)n(C)c%10)n(C)c9)n8)n(C)c7)n6)n(C)c5)n4)n(C)c3)n2)n1 (centres unmarked) [KR13]		the cells at the S phase and the G2M phase were slightly increased	an increase in the cell at the Sub G1 phase was not significant	18	8					13	14			significant induction of DNA damage and cell death was not observed
